Measurements from US11129867B2, “Method of treating cancer cells” (priority 2017, dated 2021).
Where a SMILES comes first, the peptide text is derived from it. The star is where a group is joined. X1 = CN(C)c1ccc2c(-c3ccc(C(=O)*)cc3C(=O)[O-])c3ccc(=[N+](C)C)cc-3oc2c1

What was measured:
[1] = tested on: Ca922 cells; experiment: WST-8 cell viability assay, Ca922; assay type: cell-based, human; settings: for cytotoxicity (cell viability): 48 hours
Protocol: (§1) Human oral squamous cell carcinoma (OSCC) cell lines, Ca922, OSC20, OECM-1, OC3, CGHNC9, HSC3, plus A549, MDA-MB-231, MCF7, Huh7, HeLa-Kyoto, Detroit 562, H520, H2170, and 293T cells were used in this study. Ca922, CGHNC9, MDA-MB-231, MCF7, Huh7, HeLa-Kyoto, Detroit 562, and 293T cells were all cultured in high-glucose Dulbecco's Modified Eagle Medium (DMEM). OSC20 and HSC3 cells were cultured in Dulbecco's Modified of Eagle's Medium/Ham's F-12 50/50 Mix (1:1). OECM-1, A549, H520, and H2170 cells were grown in RPMI-1640 medium. All culture media were supplemented with 10% fetal bovine serum (FBS) and 1% penicillin-streptomycin. OC3 cells were cultured in 1:1 DMEM/KSFM (keratinocyte serum-free medium) with supplied supplement of Bovine pituitary extract (BPE) and epidermal growth factor (EGF) followed by instruction. All the cells in this study were maintained at 37° C. in humidified atmosphere containing 5% CO2.
(§2) WST-8 [2-(2-methoxy-4-nitrophenyl)-3-(4-nitrophenyl)-5-(2,4-disulfophenyl)-2H-tetrazolium, monosodium salt] cell viability assay
(§3) Cells were seeded into 96 well plate and incubated at 37° C. overnight. Endpoint measures of TMR-GBP or drugs were performed by water soluble tetrazolium salt (WST-8)-based colorimetric assay in triplicate which measures the metabolic conversion of WST-8 into formazan by mitochondrial dehydrogenases present in viable cells. The amount of formazan produced is proportional to the number of live cells and is expressed as cellular viability. When time was up, media were removed and supplemented with WST-8 cell viability reagent-contained cell culture medium (1:10) and incubated at 37° C. for 2 hours. Besides, three wells with WST-8-dissolved medium only (without cells) were reserved as a background control. Cell viability was measured at the absorbance of 450/655 nm wavelength by ELISA reader.

[2] = tested on: MDA-MB-231; experiment: WST-8 cell viability assay, MDA-MB-231; assay type: cell-based; settings: MDA-MB-231 (breast cancer), different concentrations, 48 hours, FIG. 3
Protocol: as §1, §2
(§4) Cells were seeded into 96 well plate and incubated at 37° C. overnight. […] The amount of formazan produced is proportional to the number of live cells and is expressed as cellular viability. […] Cell viability was measured at the absorbance of 450/655 nm wavelength by ELISA reader.

[3] = tested on: 293T; experiment: WST-8 cell viability assay, 293T; assay type: cell-based; settings: 293T (embryonic kidney), different concentrations, 48 hours, FIG. 3
Protocol: as §1, §2, §4

[4] = tested on: Huh7; experiment: WST-8 cell viability assay, Huh7; assay type: cell-based; settings: Huh7 (liver cancer), different concentrations, 48 hours, FIG. 3
Protocol: as §1, §2, §4

[5] = tested on: A549; experiment: WST-8 cell viability assay, A549; assay type: cell-based; settings: A549 (lung cancer), different concentrations, 48 hours, FIG. 3
Protocol: as §1, §2, §4

[6] = tested on: H2170; experiment: WST-8 cell viability assay, H2170; assay type: cell-based; settings: H2170 (lung cancer), different concentrations, 48 hours, FIG. 5
Protocol: as §1, §2, §3

[7] = tested on: Ca922 cells; experiment: Time-lapse live cell imaging, Ca922; assay type: cell-based
Protocol: Ca922 cells were grown on 35 mm culture dishes overnight then treated with 1% DMSO, 12.5 μM TMR, GBP, TMR-GBP respectively and monitored by time-lapse live cell microscope. Cells were exposed to indicate wavelength once every 4 hours for 100 ms and continuously for 20 hours. At least 300 cells in five different fields were counted for each experiment using microcopy that captured images under 10× magnification. Mortality rate was evaluated by counting the percentage of dead cells in the whole population. Standard deviations of three independent experiments were indicated as bars.
(§5) Time-Lapse Live Cell Imaging
(§6) In order to monitor cell morphology and the stability of TMR-GBP, cells were incubated in 35 mm dish or 4 well dish at 37° C. overnight. Replaced the culture medium with CO2-independent medium with supplement of 10% fetal bovine serum (FBS) and 1% penicillin-streptomycin, cells were treated with reagent (TMR, GBP, TMR-GBP) for the time according to the experiment and subjected to time-lapse live cell imaging. Cells were maintained on the microscope stage incubator at 37° C. Multiple-positional time-lapse imaging was performed using an automated Leica DMI6000 inverted microscope equipped with an HCX PL FL 20λ/NA0.4 objective and Andor Luca R EMCCD camera. Images of cells were taken at different interval time and analyzed by MetaMorph software.

[8] = tested on: OECM-1; experiment: Time-lapse live cell imaging, OECM-1; assay type: cell-based, human; settings: OECM-1, unbound TMR-GBP removed, imaged at 15 minutes interval for 16 hours, FIG. 4
Protocol: as §5, §6

[9] = tested on: OSC20; experiment: Time-lapse live cell imaging, OSC20; assay type: cell-based, human; settings: OSC20, unbound TMR-GBP removed, imaged at 15 minutes interval for 16 hours, FIG. 4
Protocol: as §5, §6

[10] = tested on: A549; experiment: Time-lapse live cell imaging, A549; assay type: cell-based; settings: A549, unbound TMR-GBP removed, imaged at 15 minutes interval for 16 hours, FIG. 4
Protocol: as §5, §6

[11] = tested on: Caspase-9; experiment: Western blotting of Caspase-9; assay type: cell-based, human; settings: Ca922, 25 μM, FIG. 11B
Protocol: Protein lysate of Ca922 cells treated with TMR-GBP 25 μM were blotted with antibodies against Caspase-3, Caspase-7, Caspase-9 and Poly (ADP-ribose) polymerase (PARP). Representative blots are shown.
Western Blotting Analysis
Cells were harvested by trypsion or scratch and lysed in RIPA buffer (50 mM Tris-HCl, pH 7.4, 150 mM NaCl, 0.1% SDS, 0.5% Sodium deoxycholate, 1% NP-40) supplemented with 1× protease inhibitor cocktail. Sample was incubated on ice for 30 minutes and scraped every 10 minutes. Centrifuge at 13,000 rpm at 4° C. for 15 minutes, then collect supernatant for analysis. Protein concentration was determined by Bradford assay. First, 5× Bradford assay dye reagent was diluted into […], and mixture with RIPA (as standard) or samples. Concentration was obtained by spectrophotometer measurement. Equal volume of 2× laemmli buffer containing β-ME was added into protein lysate for goal concentration. Protein samples were boiled at 100° C. for 15 minutes and resolved by 10% SDS-PAGE gel or 4%-15% gradient gel. Then, transfer to PVDF membrane by 100V or 110V voltage for 1 hour. […] Washing the membrane three times with 1×PBST for every 5 minutes, protein band was detected by modified ECL (ddH2O, […] Tris pH8.0, 200 μM p-coumaric acid, 1.25 mM luminal, 0.001% H2O2) with ImageQuant LAS 4000 digital imaging system.

## CN(C)c1ccc2c(-c3ccc(C(=O)N[C@@H](CC(N)=O)C(=O)N[C@@H](Cc4ccc(O)cc4)C(=O)N[C@@H](CCCNC(=N)N)C(=O)N[C@@H](Cc4c[nH]c5ccccc45)C(=O)N[C@@H](CCCNC(=N)N)C(=O)N[C@@H](CS)C(=O)N[C@@H](CCCCN)C(=O)N[C@@H](CC(N)=O)C(=O)N[C@@H](CCC(N)=O)C(=O)N[C@@H](CC(N)=O)C(=O)O)cc3C(=O)[O-])c3ccc(=[N+](C)C)cc-3oc2c1 [TMR-GBP] (X1-NYRWRCKNQN-OH; N-terminus and C-terminus assumed)
[1]; Ca922 (oral cancer), different concentrations, FIG. 5
  cytotoxicity (cell viability): could induce cytotoxicity
[1]; Ca922, NAC pretreated 2 hours, then TMR-GBP 0, 12.5, 25 or 50 μM for 48 hours, FIG. 8B
  TMR-GBP induced cytotoxicity after NAC pretreatment: partially suppressed by NAC
[1]; Ca922, calcium chelators BAPTA-AM, EGTA pretreated 2 hours, then TMR-GBP 48 hours, FIG. 8B
  TMR-GBP induced cytotoxicity, dependence on calcium: independent of calcium release
[1]; Ca922 cells, 50 μM, FIG. 1
  cytotoxicity (cell viability): could induce cytotoxicity
[2]
  cell viability: not markedly affected
[3]
  cell viability: not markedly affected
[4]
  cell viability: not markedly affected
[5]
  cell viability: not markedly affected
[6]
  cytotoxicity (cell viability): could induce cytotoxicity
[7]; Ca922, 12.5 μM, exposed to 532 nm, 488 nm, 405 nm and brightfield, after 20 hours, FIG. 2
  cytotoxicity under light stress (mortality): more sensitive to 532 nm light stress and displayed cytotoxic effects
[7]; Ca922, unbound TMR-GBP removed, imaged at 15 minutes interval for 16 hours, FIG. 4
  cell death by time-lapse microscopy: most cells die in 8 hours
[8]
  cell death by time-lapse microscopy: most cells die in 8 hours
[9]
  cell death by time-lapse microscopy: most cells die in 8 hours
[10]
  cell death by time-lapse microscopy: still alive after long-term TMR-GBP treatment
[11]
  activation of caspase-9: did not activate
